Measurements published in patent publication EP0113998A2, “Composition and treatment for herpes simplex viral infections” (priority 1982, dated 1984).
Marks after values point to notes of the source that are not given here.

Tested on: herpes simplex infections
Assay type: in vivo, Human
Conditions: for Side Effects: human, in vivo; for Number Days To > 90% Improvement: topical, 1% in aqueous 30% ethanol and 5% neopurcellin, genital and oral herpes patients, placebo 6.250
Description: A clinical study was performed in a. classical double blind format with numbered vials containing either 1% sodium deoxycholic acid (DOC)in an aqueous solution of 30% ethanol and 5% neopurcellin (a mixture of inert medium chain fatty acids). The placebo was exactly the same, except that it lacked the sodium deoxycholic acid.

Compound | Side Effects | Number Days To > 90% Improvement | Efficacy by site of infection (genital / oral herpes) (description in words, patients of Example 2) | reduction of significant signs of herpes simplex infections including erythema, edema, vesiculation, ulceration and pain (summary of findings of Example 2)
C[C@H](CCC(=O)O)[C@H]1CC[C@H]2[C@@H]3CC[C@@H]4C[C@H](O)CC[C@]4(C)[C@H]3C[C@H](O)[C@]12C [DOC, sodium deoxycholic acid] | 1* | 1.608 days | – | –
CC[N+](C)(CC)CCO[C@H]1CC[C@@]2(C)C(=CC[C@H]3[C@@H]4CC[C@H]([C@@H](C)O)[C@@]4(C)CC[C@@H]32)C1 [TX047, 3-beta-[2-(Diethylamino)ethoxy]-20-beta-hydroxypregn-5-ene methyl p-toluenesulphonate] | 2* | 1.774 days | approx. 60% genital, 40% oral herpes. Efficacy was greatest in the treatment of oral infec-tions and less but clearly active, and use-ful for genital herpes. | markedly reduce the significant signs of herpes simplex infections
